In US8062996B2, “Plant glutamate receptors” (priority 1995, dated 2011):

Legend:
ASN1 mRNA = ASN1 mRNA levels by Northern blot (relief of sucrose repression); format: in vivo, Arabidopsis; conditions: for relief of sucrose repression of ASN1 mRNA: 3% sucrose, dark 2 d; for induction of ASN1 mRNA: average of two Northern blot experiments, densitometry
Procedure: FIG. 12A. Arabidopsis seeds were grown on plates containing MS medium plates 3% (w/v) Suc under 16-h light/8-h dark cycle for 2-3 weeks. The plants were then transferred to media described below and grown in complete darkness for 2d. All samples containing 3% sucrose except for lane 2. MS was supplemented with kainate (lane 4:0.3 mM and lane 5: 0.03 mM), 0.05% (w/v) glutamate (lanes 6 and 7), and 10 μM DNQX (lanes 7 and 8). The expression of ASN1 and a control gene were detected by northern analyses on duplicate blots (under high-stringency conditions in 50% [v/v] formamide-solution), 20 μg of total RNA was used for each lane.
FIG. 12B. Quantitation of the Northern blot results in (A) by densitometry scan.
FIG. 12C. Average folds of induction in two Northern blot experiments.
The ability of a iGluR agonist to mimic the glutamate-stimulated expression of nitrogen assimilatory genes in Arabidopsis was tested using low concentrations of agonist KA and monitoring ASN1 mRNA levels as a measure of gene induction by KA.
ASN1 mRNA accumulates to high levels specifically in dark-treated plants (FIG. 12A, lane 2), and is repressed by light (FIG. 12A, lane 1) or sucrose (FIG. 12A, lane 3). […] ASN1 mRNA levels are determined by Northern blot analysis.

Arabidopsis [1] = assay: Plant growth assay: root length on vertical tissue culture plates; format: in vivo
Procedure: Arabidopsis seeds were grown on MS+3% sucrose vertical tissue culture plates containing various amounts of kainate (FIG. 11A) or DNQX (FIG. 11B), with (white bars) or without (black bars) glutamate supplementation. The effects of each drug on plant growth were assayed by measuring root length after two week. The results were discussed in text.
The following assay may be utilized in order to screen drugs for their effects on plant growth mediated by the GluR. Arabidopsis seedlings expressing or overexpressing the GluR are treated with the potential agonist or antagonist. In this plant growth assay, Arabidopsis seeds are plated on tissue culture plates in MS Medium (Murashige and Skoog Salt Mixture-plant basic medium available from Gibco (BRL)). A dose-response curve is determined using various concentrations of the potential agonist or antagonist added to the medium. The plants are grown vertically in a growth chamber at 22° C. with a 16 hour light/8 hour dark cycle for two weeks. The effects of each herbicide on plant growth is assessed by measuring root length on vertical tissue culture plates.
A dose-response curve using various concentrations of KA or DNQX was performed and the effects of each drug on plant growth was determined by measuring root length on vertical tissue culture plates (see FIG. 11).

Arabidopsis [2] = assay: Germination of Arabidopsis in the dark; format: in vivo
Text: FIG. 23. Effects of kainate of germination of Arabidopsis in the dark.
Kainate inhibition of germination in the dark is reversed by glutamate. Plants germinated in the dark on “normal” MS media (MS) as a positive control. Kainate, the iGluR agonist, causes a specific inhibition of germination of plants grown in MS media containing KA. The inhibition of germination by KA is reversed by the addition of glutamate to the media (MS+KA+Glu) (FIG. 23). Germination involves a light signal. Dark-grown seedlings are sown in the light and transferred to the dark. […] High doses of KA an agonist of iGluR in animals functions as a neurotoxin.
The effects of kainate on germination of Arabidopsis in the dark was determined.

[3] = test system: Arabidopsis wild-type seedlings; assay: Survival of wild-type seedlings on high-dose kainate; format: in vivo; conditions: 12 mM kainate
Procedure: FIGS. 28A and 28B. Selection of Arabidopsis mutants resistant to the iGluR agonist Kainate. […] This is not unexpected as high doses of the iGluR agonist kainate function as a neurotoxin in animals. Arabidopsis mutants with putative defects in the KA binding site of iGluR were selected for the ability to grow in the presence of 12 mM kainate. […] Note the one KA-resistant plant is enlarged in FIG. 28B.
Arabidopsis mutants resistant to the iGluR agonist Kainate were selected. […] This is not unexpected as high doses of the iGluR agonist kainate function as a neurotoxin in animals. Arabidopsis mutants with putative defects in the KA binding site of iGluR were selected by selecting for mutants able to grow in the presence of 12 mM kainate. The ems mutagenized Arabidopsis M2 seedlings were sown on 12 mM kainate. Note the one KA-resistant plant is enlarged in FIG. 28B.

| Structure (SMILES) | relief of sucrose repression of ASN1 mRNA (ASN1 mRNA; 0.05% (w/v) glutamate) | induction of ASN1 mRNA (ASN1 mRNA) | root growth (Arabidopsis [1]; high concentrations of agonist or antagonist, without glutamate) | effect of high doses on root growth with glutamate supplementation (Arabidopsis [1]; high doses plus glutamate) | effect on plant growth (root length) (Arabidopsis [1]; low concentrations, 0 to 0.3 mM KA, two weeks) | germination of dark-grown seedlings (Arabidopsis [2]; kainate 200-400 uM) | inhibition of germination with glutamate supplementation (Arabidopsis [2]; kainate plus glutamate in growth media) | relief of sucrose repression of ASN1 mRNA (ASN1 mRNA; KA 300 uM and 30 μM) | lethality to wild-type seedlings [3] |
| --- | --- | --- | --- | --- | --- | --- | --- | --- | --- |
| N[C@@H](CCC(=O)O)C(=O)O [glutamate] | able to partially relieve this sucrose repression | roughly 2 fold | – | – | – | – | – | – | – |
| C=C(C)[C@H]1CN[C@H](C(=O)O)[C@H]1CC(=O)O [KA, kainic acid] | – | roughly 2 fold | reduction in root growth | at least partially reversed by glutamate supplementation | no adverse effects on plant growth | significant inhibition of germination | specifically reversed by the supplementation of glutamate | able to relieve the sucrose repression of ASN1 mRNA | kill wild-type seedlings |
